Here are results for nine compounds from patent US20050043369A1, “Bactericidal antimicrobial methods and compositions for use in treating gram positive infections” (Protez Pharmaceuticals Inc., priority 2000, published 2005).

What all share (assay type): cell-based, Staphylococcus aureus
For one assay, the system named is S. aureus SA 29213. Nature of the assay: 55Fe transport assay (intracellular iron accumulation). As to conditions: compound at 2 μg/ml; S. aureus SA 29213. As for the experimental part: Next, investigated was whether INF 401 affects intracellular iron accumulation. An ^55Fe transport assay (modified from Sebulsky, 2000) was used to examine the ability of INF 401 to transport iron inside the cell. Briefly, exponentially growing cells were diluted to OD600 0.1 in LB, incubated with ^55FeCl3 for 30 min at 37° C., washed and counted in scintillation fluid using the tritium channel of a scintillation system. […] However, the presence of INF 401 in either the absence or presence of antibiotic led to a dramatic increase in iron accumulation (209,215 and 231,621 DPM, respectively).
(§1) Activity of the compound is depicted as the minimal concentration required to kill 99.9% of S. aureus in the presence of 4 μg/ml erythromycin.

In a further assay the test system is S. aureus strain SA1199. Kind of assay: Screening and titration of potentiators with erythromycin (4 μg/ml), viability read by transfer to fresh medium. As to conditions: in the presence of 4 μg/ml erythromycin. As for the experimental part:
In an exemplary screening assay, in order to identify a candidate acyl hydrazide, oxy amide or 8-hydroxy quinoline composition as an antibacterial agent potentiator, the S. aureus strain SA1199 may be used. The procedure for screening is as follows: logarithmically growing S. aureus SA1199 are inoculated to a final OD600 of 0.002 into 150 μl of LB medium containing a bacteriostatic concentration of an antimicrobial agent for that strain, for example, erythromycin (4 μg/ml) at four times the Minimal Inhibitory
Concentration (MIC). […] In preliminary studies the inventors determined that under these conditions up to 2000 viable cells were transferred after incubation with erythromycin. As confirmed by broth microdilution, at least a 1000-fold reduction in viability was required to see no visible growth after 20 hours. Acyl hydrazide, oxy amide or 8-hydroxy quinoline antibiotic potentiators may be identified as those compounds that increase the bactericidal effect of the erythromycin.
The macrolide erythromycin was chosen in the initial screen for two reasons: first, its mechanism of inhibition of protein synthesis is well characterized and second, as a macrolide, erythromycin is representative of an expanding class of agents which includes the second most prescribed antibiotic, azithromycin.
In preliminary studies the inventors determined that under these conditions up to 2000 viable cells were transferred after incubation with erythromycin. As confirmed by broth microdilution, at least a 1000-fold reduction in viability was required to see no visible growth after 20 h.
Next the activity of the hit compounds was compared by titration of the compounds in the presence of erythromycin at 4 μg/ml as described above.
as §1

The subject of assay [1] is S. aureus SA1199. Nature of the assay: Checkerboard two-fold broth microdilution, MIC and MBC. As to conditions: for MBC: read-out: MBC^a = MBC in the absence of INF 401; for MBC^b = MBC in the presence of 5 μg/ml of INF 401: plus 5 μg/ml INF 401, unit not given. The method, then:
Checkerboard titration was performed with INF 401 and erythromycin to quantitate the effects of the combination on Staphylococcal growth using two-fold serial broth microdilution. After overnight incubation, cells were transferred to fresh medium, as described above, to determine those combinations that were bactericidal to S. aureus. […] Although not determined according to NCCLS recommended procedures ([…]), the inventors considered this the Minimal Bactericidal Concentration (MBC).
The inventors next evaluated whether INF 401 was bactericidal in combination with other protein synthesis inhibitors which are bacteriostatic to S. aureus. Checkerboard studies were performed with two-fold dilutions of each antibiotic in combination with INF 401 using the assay described above in Example 2. After overnight incubation the MIC of each antibiotic was determined by visualization of bacterial growth. […] The MBC of each antibiotic was determined as described in Example 2 in the absence or presence of INF 401.

Assay [2] concerns S. aureus SA1199. The assay is described as above. As to conditions: Table 2, plus 10 μg/ml INF 402, unit not given.
The next assay has as its system S. aureus ATCC 29213. Kind of assay: MBEC assay system, checkerboard: planktonic MIC and biofilm MBEC. Particulars: INF 401 at 0.3 μg/ml where in label. The method, then: These studies were performed via the method of Dr. Howard Ceri (University of Calgary), who recently developed a method for the routine determination of the antibiotic susceptibility of biofilms. To date, the inventors have tested the effect of the combination of INF 401 on the ability of either clindamycin or rifampin to eradicate S. aureus biofilms in vitro. S. aureus ATCC 29213 was selected for the study as previous studies of this isolate as a biofilm had been conducted and the isolate served as a quality assurance organism for NCCLS standardization of antibiotic testing. Biofilms were formed as previously described for this organism (Ceri et al., 1999) using the MBEC™ assay system. Checkerboard studies were performed with each antibiotic versus INF 401.

For another assay, the system named is S. aureus (SA1199). Nature of the assay: Time kill studies (CFU counts). As to conditions: antibiotic 1×MIC + 5 μg/ml INF 401. The method, then: FIG. 5A, FIG. 5B and FIG. 5C. […]
The initial inoculum number was determined by plating an appropriate dilution on LB agar plates and determining the number of colony forming units (CFUs). At different time points an aliquot was withdrawn from each tube and cell viability was determined by plating an appropriate dilution and counting CFUs after overnight incubation.

For assay [3], the system named is S. aureus strain ATTC 29213. Nature of the assay: Characterization of killing by INF 401 plus chloramphenicol (viability, morphology, protein, DNA, metal dependence). Particulars: reversed by exogenous Fe3+.
Experimental: Time kill study of the effect of NF 401 in combination with chloramphenicol. Exponentially growing cells (S. aureus strain 29213) were diluted to OD600 0.1 in LB supplemented with 20 μg/ml of chloramphenicol (Cm) in the presence or absence of INF 401 (2 μg/ml) and incubated with shaking at 37° C. At indicated time points cells were harvested, washed with LB and plated on LB agar plates. Number of colony forming units (CFUs) was determined after overnight incubation.
Time kill study of the effect of iron on the bactericidal activity of INF 401. S. aureus strain 29213 was grown overnight in iron-limited Staphylococcal Siderophore Detection (SSD) medium (Heinrichs, 1999) supplemented with 2 μM FeCl3, washed with SSD and diluted 1:100 into the fresh medium containing 0, 2 or 50 μm FeCl3. Exponentially growing cells were diluted to OD600 0.01 in the corresponding medium supplemented when indicated with 20 μg/ml of chloramphenicol (Cm) and 2 μg/ml of INF 401. At 0, 1, 2 and 3.5 hours cells were plated in different dilutions to the LB agar plates and number of colony forming units (CFUs) was counted next day.
Where [4] appears, read: Staphylococcus aureus, Table 1, S. aureus SA1199, antibiotic alone, unit inferred.
Setting [5] is: Staphylococcus aureus, Table 1, S. aureus SA1199, unit inferred, read-out: MIC.

SMILES strings stand for the structures. Where two headings read alike, the source gives them in different places.

Turning to `O=C(Cc1ccccc1)N/N=C/c1c(O)ccc2ccccc12`, the “^55Fe Accm.” value in the assay with S. aureus SA 29213 was 36,941 DPM. Moreover, the “Activity (minimal concentration required to kill 99.9% of S. aureus)” value in the assay on S. aureus strain SA1199 is 0.15 µg/mL.
For `O=C(N/N=C/c1c(O)ccc2ccccc12)Nc1ccccc1`, in the assay on S. aureus SA 29213, the “^55Fe Accm.” value is 14,400 DPM. Further, in the assay with S. aureus strain SA1199, the “Activity (minimal concentration required to kill 99.9% of S. aureus)” value amounted to 0.3 µg/mL.
Consider `COc1ccccc1NC(=O)N/N=C/c1c(O)ccc2ccccc12`, for which, in the assay with S. aureus SA 29213, the “^55Fe Accm.” value was 1,900 DPM. Also, the “Activity (minimal concentration required to kill 99.9% of S. aureus)” value with S. aureus strain SA1199 is more than 10 µg/mL.
The matching figures for `Cc1cccc(CNC(=O)N/N=C/c2c(O)ccc3ccccc23)c1`: 1,500 DPM and more than 10 µg/mL.
Regarding `Cc1ccc(CNC(=O)N/N=C/c2c(O)ccc3ccccc23)cc1`, in the assay on S. aureus SA 29213, the “^55Fe Accm.” value is given as 9,100 DPM. Besides, in the assay with S. aureus strain SA1199, the “Activity (minimal concentration required to kill 99.9% of S. aureus)” value was 1.25 µg/mL.
In general, MBC refers to the lowest tested concentration that kills the bacteria rather than only halting them. Regarding `[H]/N=C(\N/C(=N/[H])NCCCCCCNC(=N)NC(=N)Nc1ccc(Cl)cc1)Nc1ccc(Cl)cc1` [Chlorhexidine], in the assay with S. aureus SA1199 [1] (setting [4]), the minimal bactericidal concentration (MBC) was found to be 4 µg/mL. For the same compound, in the assay on S. aureus SA1199 [1] (setting [5]), the MIC came out at 1 µg/mL. For the same compound, the “MBC^b = MBC in the presence of 5 μg/ml of INF 401” value (from here on “MBC^b = MBC … of INF 401”) in the assay on S. aureus SA1199 [1] (Table 1, S. aureus SA1199) came to 1.
`CCC[C@@H]1C[C@@H](C(=O)N[C@@H]([C@H]2O[C@H](SC)[C@H](O)[C@@H](O)[C@H]2O)[C@H](C)Cl)N(C)C1` [Clindamycin]: in the assay on S. aureus SA1199 [2], the “MBC^b = MBC in the presence of 10 μg/ml of INF 402” value stood at 2. Moreover, the MIC in the assay on S. aureus ATCC 29213 (Staphylococcus aureus, ATCC29213, planktonic population) is less than 1 µg/mL; in the assay on S. aureus SA1199 [1] (setting [5]), 0.25 µg/mL; with S. aureus SA1199 [1] (Table 2, S. aureus SA1199, unit inferred), 0.25 µg/mL. Moreover, in the assay with S. aureus ATCC 29213 (biofilm population), the MBEC turned out to be 256 µg/mL. The “bactericidal concentration of antibiotic alone as multiple of MIC” value in the assay on S. aureus SA1199 [1] (S. aureus, absence of INF 401) was 4 ×MIC. The minimum bactericidal concentration (MBC) in the assay on S. aureus SA1199 [1] (setting [4]) turned out to be 4 µg/mL. In addition, the “MBC^b = MBC … of INF 401” value in the assay with S. aureus SA1199 [1] (Table 1, S. aureus SA1199) amounted to 0.125. Also, the MBC^a = MBC in the absence of INF 401 in the assay on S. aureus SA1199 [1] (Table 2, S. aureus SA1199, antibiotic alone, unit inferred) is 4 µg/mL. In the assay on S. aureus (SA1199), the “reduction in cell viability, antibiotic in combination with INF 401” value is 3 log10.
For the compound `N[C@@H]1CON=C1O` [Cycloserine], in the assay on S. aureus SA1199 [1] (setting [4]), the minimal bactericidal concentration (MBC) was more than 256 µg/mL. The MIC in the assay with S. aureus SA1199 [1] (setting [5]) amounted to 32 µg/mL. Also, the “MBC^b = MBC … of INF 401” value in the assay with S. aureus SA1199 [1] (Table 1, S. aureus SA1199) turned out to be 32.
With `O=C(O)C(NCCNC(C(=O)O)c1ccccc1O)c1ccccc1O` (stereo not drawn) [EDDHA], in assay [3], the “effect of iron chelator on killing by INF 401” value is listed as “completely ablate killing”.
